Assay results as given in PMC12752606, “METTL10‐Mediated PIAS3 Methylation Links Purine Metabolism to Gastric Cancer Progression” (Advanced Science, 2025).
Where two headings read alike, the source gives them in different places.

Experiment: Plasma pharmacokinetics after IV and PO administration
Type: in vivo, male Sprague–Dawley rats
Conditions: male, Sprague-Dawley, rat, plasma; for bioavailability: PO 10 mg/kg vs IV 1 mg/kg
Protocol: LZQ‐02‐023‐1 was administered to male Sprague–Dawley (SD) rats (n = 3 per group) via intravenous injection at a dose of 1 mg/kg or oral gavage at a dose of 10 mg/kg. Blood samples were collected at predetermined time points, and plasma concentrations of LZQ‐02‐023‐1 were determined using a validated LC‐MS/MS method. Briefly, working solutions of the analyte were prepared by diluting stock solutions with 50% acetonitrile in water to achieve serial concentrations (10, 20, 50, 100, 200, 500, 1000, 5000, and 10 000 ng/mL). Calibration standards were prepared by spiking 5 µL of working solution into 50 µL of blank SD rat plasma, resulting in final concentrations of 1, 2, 5, 10, 20, 50, 100, 500, and 1000 ng/mL in a total volume of 55 µL. Quality control (QC) samples were independently prepared at four concentrations (2, 5, 50, and 800 ng/mL) using blank SD rat plasma, following the same procedure as for the calibration standards. On the day of analysis, 55 µL of each calibration standard, QC sample, or unknown sample (prepared by mixing 50 µL of SD rat plasma with 5 µL of blank solution) was added to 200 µL of acetonitrile:methanol (1:1, v/v) containing an internal standard (IS) mixture for protein precipitation. The samples were vortexed for 30 s, centrifuged at 4000 rpm for 15 min at 4 °C, and the resulting supernatant was diluted threefold with water. A 10 µL aliquot of the diluted supernatant was injected into an AB Sciex Triple Quad 5500 LC‐MS/MS system for quantitative analysis. Pharmacokinetic parameters, including the maximum plasma concentration (Cmax), time to reach Cmax (Tmax), elimination half‐life (t1⁄2), area under the plasma concentration‐time curve (AUC0–t and AUC0–∞), clearance (CL), and volume of distribution (Vd), were calculated using noncompartmental analysis (NCA) in Phoenix WinNonlin 8.3 (Certara; Table S3, Supporting Information).

[1] = iv, 1 mg/kg, IV 1 mg/kg, read-out: Plasma concentration, mean
[2] = iv, 1 mg/kg, IV 1 mg/kg, individual rats R01-R03, read-out: Plasma concentration
[3] = po, 10 mg/kg, PO 10 mg/kg, read-out: Plasma concentration, mean
[4] = po, 10 mg/kg, PO 10 mg/kg, individual rats R04-R06, read-out: Plasma concentration

Cc1ccc(Nc2ncc3c(n2)N(C)C(=O)N(c2cccc(N)c2)C3)cn1 [LZQ-02-023-01, Three‐(3‐aminophenyl)‐1‐methyl‐7‐((6‐methylpyridin‐3‐yl)amino)‐3,4‐dihydropyrimido [4,5‐d] pyrimidin‐2 (1H)‐one]
concentration at 0.25 h [1]: 30.3 ng/mL | concentration at 0.5 h [2]: 10.9 ng/mL | concentration at 0.5 h [1]: 13.1 ng/mL | concentration at 1 h [2]: 4.26 ng/mL | concentration at 1 h [1]: 4.21 ng/mL | concentration at 2 h [2]: 2.35 ng/mL | concentration at 2 h [1]: 2.11 ng/mL | AUC(0-inf) (iv, 1 mg/kg, IV 1 mg/kg, individual rats R01-R03, read-out: AUCInf): 168 ng·h/mL | AUC(0-t) (iv, 1 mg/kg, IV 1 mg/kg, individual rats R01-R03, read-out: AUClast): 165 ng·h/mL | C0 (iv, 1 mg/kg, IV 1 mg/kg, individual rats R01-R03, read-out: C0): 2110 ng/mL | clearance (iv, 1 mg/kg, IV 1 mg/kg, individual rats R01-R03, read-out: Cl_obs): 99.3 mL/min/kg | MRT inf (iv, 1 mg/kg, IV 1 mg/kg, individual rats R01-R03, read-out: MRTInf_obs): 7.8 min | half-life (iv, 1 mg/kg, IV 1 mg/kg, individual rats R01-R03, read-out: T1/2 (converted)): 43.3 min | AUC(0-inf) (iv, 1 mg/kg, IV 1 mg/kg, read-out: AUCInf, mean): 178 ng·h/mL | AUC(0-t) (iv, 1 mg/kg, IV 1 mg/kg, read-out: AUClast, mean): 176 ng·h/mL | clearance (iv, 1 mg/kg, IV 1 mg/kg, read-out: Cl_obs, mean): 94.2 mL/min/kg | MRT inf (iv, 1 mg/kg, IV 1 mg/kg, read-out: MRTInf_obs, mean): 6.96 min | half-life (iv, 1 mg/kg, IV 1 mg/kg, read-out: T1/2, mean (converted)): 37.2 min | half-life (iv, 1 mg/kg, IV administration, male SD rats, read-out: Plasma half-life (converted)): ~37.2 min | bioavailability (po, 10 mg/kg, individual rats R04-R06, read-out: F (bioavailability)): 1.82% | bioavailability (po, 10 mg/kg, read-out: F (bioavailability), mean): 1.82% | concentration at 0.25 h [3]: 23.9 ng/mL | concentration at 0.5 h [4]: 14.1 ng/mL | concentration at 0.5 h [3]: 18.1 ng/mL | concentration at 1 h [3]: 5.83 ng/mL | concentration at 2 h [3]: 6.5 ng/mL | concentration at 4 h [4]: 1.99 ng/mL | concentration at 4 h [3]: 1.79 ng/mL | AUC(0-inf) (po, 10 mg/kg, PO 10 mg/kg, individual rats R04-R06, read-out: AUCInf): 32.4 ng·h/mL | Cmax (po, 10 mg/kg, PO 10 mg/kg, individual rats R04-R06, read-out: Cmax): 39 ng/mL | MRT inf (po, 10 mg/kg, PO 10 mg/kg, individual rats R04-R06, read-out: MRTInf_obs): 111 min | Tmax (po, 10 mg/kg, PO 10 mg/kg, individual rats R04-R06, read-out: Tmax): 15 min | AUC(0-inf) (po, 10 mg/kg, PO 10 mg/kg, read-out: AUCInf, mean): 32.3 ng·h/mL | AUC(0-t) (po, 10 mg/kg, PO 10 mg/kg, read-out: AUClast, mean): 28.6 ng·h/mL | Cmax (po, 10 mg/kg, PO 10 mg/kg, read-out: Cmax, mean): 27.7 ng/mL | MRT inf (po, 10 mg/kg, PO 10 mg/kg, read-out: MRTInf_obs, mean): 114 min | half-life (po, 10 mg/kg, PO 10 mg/kg, read-out: T1/2, mean (converted)): 90.6 min | Tmax (po, 10 mg/kg, PO 10 mg/kg, read-out: Tmax, mean): 20 min | half-life (po, 10 mg/kg, PO administration, male SD rats, read-out: Plasma half-life (converted)): ~90.6 min
